# According to PMC9065260 (Frontiers in Pharmacology, 2022):
# “And” between values parts separate entries of the source, which are not always exact repeats. Equal values may be shown once.
# How the values were obtained:
# KYSE70 cells = assay: MTT assay for cell proliferation and cytotoxicity; format: cell-based; settings: Homo sapiens, KYSE-70; MTT, 48 h, mean ± SD; read-out: IC50 KYSE70
# Procedure: (§3) The compounds were dissolved in DMSO to make a 50 mM stock solution and were diluted to the concentration of working solutions with the complete growth medium before administration.
# (§4) Cells were seeded in 96-well plates with densities of 2,200–2,500 cells/well in 100 μL. One day after seeding, the concentration of the test compounds between 0 and 50 μM, 0.1% DMSO was added to cells as control. […] After 48 h, MTT was added and incubated in the plate for 1–4 h in the incubator.
# KYSE410 cells = assay: MTT assay for cell proliferation and cytotoxicity; format: cell-based; settings: Homo sapiens, KYSE-410; MTT, 48 h, mean ± SD; read-out: IC50 KYSE410
# Procedure: as §3, §4
# KYSE450 cells [1] = assay: MTT assay for cell proliferation and cytotoxicity; format: cell-based; settings: Homo sapiens, KYSE-450; MTT, 48 h, mean ± SD; read-out: IC50 KYSE450
# Procedure: as §3, §4
# H1650 cells = assay: MTT assay for cell proliferation and cytotoxicity; format: cell-based; settings: Homo sapiens, NCI-H1650; MTT, 48 h, mean ± SD; read-out: IC50 H1650
# Procedure: as §3, §4
# HCC827 cells [2] = assay: MTT assay for cell proliferation and cytotoxicity; format: cell-based; settings: Homo sapiens, 48 h, mean ± SD
# Procedure: as §3, §4
# [3] = tested on: human esophageal epithelial cell SHEE; assay: MTT assay, toxicity against normal cells; format: cell-based; settings: MTT, normal human esophageal epithelial cells, mean ± SD, read-out: IC50 SHEE
# Procedure: Cells were seeded in 96-well plates with densities of 2,200–2,500 cells/well in 100 μL. One day after seeding, the concentration of the test compounds between 0 and 50 μM, 0.1% DMSO was added to cells as control. Approximately 2200-2500 transfected cells in 100 μL were incubated in quintuplicate in 96-well plates. After 48 h, MTT was added and incubated in the plate for 1–4 h in the incubator.
# KYSE70TR cells = assay: MTT assay, drug-resistant cell line; format: cell-based, human; settings: Homo sapiens; MTT, paclitaxel-resistant esophageal cancer cell line; read-out: IC50 KYSE70TR
# Procedure: as §3, §4
# KYSE410TR cells = assay: MTT assay, drug-resistant cell line; format: cell-based, human; settings: Homo sapiens; MTT, paclitaxel-resistant esophageal cancer cell line; read-out: IC50 KYSE410TR
# Procedure: as §3, §4
# KYSE450TR cells [4] = assay: MTT assay, drug-resistant cell line; format: cell-based, human; settings: Homo sapiens; MTT, paclitaxel-resistant esophageal cancer cell line; read-out: IC50 KYSE450TR
# Procedure: as §3, §4
# H1650TR cells = assay: MTT assay, drug-resistant cell line; format: cell-based, human; settings: Homo sapiens; MTT, paclitaxel-resistant lung cancer cell line; read-out: IC50 H1650TR
# Procedure: as §3, §4
# HCC827GR cells [5] = assay: MTT assay, drug-resistant cell line; format: cell-based, human; settings: Homo sapiens; MTT, gefitinib-resistant lung cancer cell line; read-out: IC50 HCC827GR
# Procedure: as §3, §4
# KYSE450 cells [6] = assay: Flow cytometry detection for cell apoptosis (Annexin V/PI); format: cell-based, human; settings: 48 h
# Procedure: (§1) Cell apoptosis analysis was carried out by flow cytometry using the Annexin V/PI apoptosis methods. […] The cells were harvested and incubated with 250 μL of 1 × Annexin V binding buffer containing 5 μL of PI and 5 μL of FITC Annexin V (final concentration 1.8 μg/ml, Biolegend cat: 640945) for 15 min at room temperature in the dark. Then 200 µL of 1 × binding buffer was added for flow cytometry analysis (BD FACSCalibur™ Flow Cytometer).
# KYSE450TR cells [7] = assay: as above; format: cell-based, human; settings: 48 h
# Procedure: as §1
# KYSE450 cells [8] = assay: Cell cycle analysis by flow cytometry; format: cell-based, human; settings: 24 h
# Procedure: (§5) KYSE450 and KYSE450TR cells were plated in 6-well plates with a density of 1 × 10^5 cells/well and cultured overnight to attach. […] After trypsinization treatment, the cells were collected by centrifugation. The cell pellet was re-suspended in 70% ethanol at −20°C for at least 3 h. […] Cells were re-transferred to the BD FACSCalibur™ Flow Cytometer. All analyses were performed with FlowJo software v105.3.6.
# KYSE450TR cells [9] = assay: Cell cycle analysis by flow cytometry; format: cell-based, human; settings: 24 h
# Procedure: as §5
# [10] = target: T1, EGFR wild-type protein (H672-E410) (Homo sapiens, UniProt P00533); assay: Surface plasmon resonance (SPR) EGFR protein affinity; format: binding; settings: immobilized wild-type EGFR
# T1 construct: purchased Active MOTIF 31165
# [11] = target: T2, EGFR mutant protein (672-1210, L858R) (Homo sapiens, UniProt P00533, L858R); assay: as above; format: binding
# T2 construct: the EGFR mutant type (672-1210, L858R, Active MOTIF, cat: 81200); purchased Active MOTIF 81200
# Procedure: Surface plasmon resonance experiments were carried out to evaluate the interaction between 3d with the EGFR wild-type (0.468 μg/μL, Active MOTIF, cat: 31165) and the EGFR mutant type (672-1210, L858R, Active MOTIF, cat: 81200). The interaction of erlotinib with wild-type EGFR was also studied. Biacore T-200 (GE healthcare, Waukesha, WI, United States) equipment was used for the study. First, the EGFR wild-type (0.468 μg/μL, Active MOTIF, cat: 31165) and the EGFR mutant type (672-1210, L858R, Active MOTIF, cat: 81200) were covalently immobilized at densities of 2000 response units onto a CM5 sensor chip. Then, 3d dissolved in DMSO was injected at concentrations between 0.064 and 5,000 nM at 25°C. […] During the interaction, the changes in the refractive index were measured in real time to allow the plotting of the results of interaction as response units versus time. The interaction results were analyzed with BIA evaluation 3.0 software.
# [12] = tested on: KYSE450 cells (caspase-3, cytochrome-c, PARP); assay: Western blot of apoptosis-related marker proteins; format: cell-based, human; settings: KYSE450, 4 μM, 6, 12 and 24 h vs control at 0 h
# Procedure: KYSE450 cells (3 × 10^5/well) were incubated overnight in 10 square petri dishes and then treated with compound 3d at 4 μM for 0, 6, 12, and 24 h. Cells treated with 0.1% DMSO were used as control. Then, the cells were harvested, and total proteins were extracted. […] The membrane was blocked for 1 h, then incubated overnight with a 1:1000 dilution of anti-caspase-3, anti-cytochrome-c, and anti-PARP, or 1 : 3,000 dilution of anti-β-action primary antibody at 4°C. Finally, 1 : 3,000 anti-rabbit secondary antibodies were incubated for 2 h at room temperature. Protein bands were developed by chemiluminescence.
# HCC827 cells [13] = assay: Plate clone formation assay; format: cell-based, human; settings: HCC827, 2.5, 5 and 10 µM, 10 days
# Procedure: (§2) Cells were seeded in 6-well plates with a density of 200 cells/well and cultured overnight for attachment. […] Medium with or without compounds was changed every 48 h. When colony formation was visible, the medium was discharged. Then, the colonies were washed with cold PBS, fixed with 4% paraformaldehyde (PFA) for at least 30 min, and then stained with 0.2% crystal violet solution in 100% ethanol for 20 min.
# HCC827GR cells [14] = assay: Plate clone formation assay; format: cell-based, human; settings: HCC827GR, 2.5, 5 and 10 µM, 10 days
# Procedure: as §2
# KYSE450 cells [15] = assay: Plate clone formation assay; format: cell-based, human; settings: KYSE450, 2.5, 5 and 10 µM, 10 days
# Procedure: as §2
# KYSE450TR cells [16] = assay: Plate clone formation assay; format: cell-based, human; settings: KYSE450TR, 2.5, 5 and 10 µM, 10 days
# Procedure: as §2
smiles,measurement,setting,value
"COCCOc1cc2ncnc(Nc3cccc(-c4cn(Cc5cc(Br)cc(Br)c5)nn4)c3)c2cc1OCCOC [Compound 3d, [6,7-Bis-(2-Methoxy-Ethoxy)-Quinazolin-4-yl]-{3-[1-(3,5-Dibromo-Benzyl)-1H-(1,2,3)Triazol-4-yl]-Phenyl}-Amine]",IC50,KYSE70 cells,5.43 ± 0.21 µM
same,IC50,KYSE410 cells,6.91 ± 0.4 µM
same,IC50,KYSE450 cells [1],4.23 ± 0.19 µM
same,IC50,H1650 cells,2.99 ± 0.13 µM
same,IC50,HCC827 cells [2],8.17 ± 0.42 µM
same,IC50,[3],> 50 µM
same,IC50,KYSE70TR cells,7.17 ± 0.73 µM
same,IC50,KYSE410TR cells,7.91 ± 0.61 µM
same,IC50,KYSE450TR cells [4],10 ± 0.75 µM
same,IC50,H1650TR cells,5.76 ± 0.33 µM
same,IC50,HCC827GR cells [5],2.38 ± 0.17 µM
same,proportion of apoptotic cells,"KYSE450 cells [6]; KYSE450, 5 μM",24.50%
same,proportion of apoptotic cells,"KYSE450 cells [6]; KYSE450, 10 μM",69.64%
same,proportion of apoptotic cells,KYSE450TR cells [7]; 5 μM,44.12%
same,proportion of apoptotic cells,KYSE450TR cells [7]; 10 μM,48.77%
same,ratio of cells in G0/G1 phase,"KYSE450 cells [8]; KYSE450, 3.5 μM",57.83%
same,ratio of cells in G2/M phase,"KYSE450 cells [8]; KYSE450, 3.5 μM",16.5%
same,ratio of cells in S phase,"KYSE450 cells [8]; KYSE450, 3.5 μM",25.67%
same,ratio of cells in G0/G1 phase,"KYSE450 cells [8]; KYSE450, 7 μM",56.56%
same,ratio of cells in G2/M phase,"KYSE450 cells [8]; KYSE450, 7 μM",18.74%
same,ratio of cells in S phase,"KYSE450 cells [8]; KYSE450, 7 μM",24.7%
same,ratio of cells in G0/G1 phase,"KYSE450 cells [8]; KYSE450, 14 μM",60.37%
same,ratio of cells in G2/M phase,"KYSE450 cells [8]; KYSE450, 14 μM",15.47%
same,ratio of cells in S phase,"KYSE450 cells [8]; KYSE450, 14 μM",24.16%
same,ratio of cells in G0/G1 phase,"KYSE450 cells [8]; KYSE450, 28 μM",55.21%
same,ratio of cells in G2/M phase,"KYSE450 cells [8]; KYSE450, 28 μM",20.66%
same,ratio of cells in S phase,"KYSE450 cells [8]; KYSE450, 28 μM",24.13%
same,cell cycle phase in which cells are arrested,"KYSE450 cells [8]; KYSE450, 3.5-28 μM",G0/G1 phase
same,ratio of cells in G0/G1 phase,KYSE450TR cells [9]; 3.5 μM,34.92%
same,ratio of cells in G2/M phase,KYSE450TR cells [9]; 3.5 μM,22.86%
same,ratio of cells in S phase,KYSE450TR cells [9]; 3.5 μM,42.22%
same,ratio of cells in G0/G1 phase,KYSE450TR cells [9]; 7 μM,37.56%
same,ratio of cells in G2/M phase,KYSE450TR cells [9]; 7 μM,23.94%
same,ratio of cells in S phase,KYSE450TR cells [9]; 7 μM,38.50%
same,ratio of cells in G0/G1 phase,KYSE450TR cells [9]; 14 μM,43.34%
same,ratio of cells in G2/M phase,KYSE450TR cells [9]; 14 μM,23.39%
same,ratio of cells in S phase,KYSE450TR cells [9]; 14 μM,33.27%
same,ratio of cells in G0/G1 phase,KYSE450TR cells [9]; 28 μM,41.19%
same,ratio of cells in G2/M phase,KYSE450TR cells [9]; 28 μM,27.28%
same,ratio of cells in S phase,KYSE450TR cells [9]; 28 μM,31.53%
same,cell cycle phase in which cells are arrested,KYSE450TR cells [9]; 3.5-28 μM,G2/M phase
same,Rmax,[10],12.9 RU
same,Kd,[10]; 25°C,6.88 µM and 6.89 µM
same,Kd,"[11]; immobilized mutant EGFR (L858R), 25°C",3.12 µM and 3.13 µM
same,Rmax,[11]; immobilized mutant EGFR (mEGFR),21.16 RU
same,caspase-3 protein level,[12],higher than those in the control at 0 h
same,cleaved PARP protein level,[12],higher than those of the control at 0 h
same,cytochrome-c protein level,[12],higher than those in the control at 0 h
same,inhibition effect on colony formation,HCC827 cells [13],more significant than that of erlotinib
same,inhibition effect on colony formation,HCC827GR cells [14],more significant than that of erlotinib
same,inhibition effect on colony formation,KYSE450 cells [15],more significant than that of erlotinib
same,inhibition effect on colony formation,KYSE450TR cells [16],more significant than that of erlotinib
